# Source: US5677282A (Proscript, Inc., priority 1995, dated 1997)
# Columns and labels:
# stromelysin = stromelysin (Homo sapiens, UniProt P08254); experiment: Assay of stromelysin inhibition activity (fluorogenic coumarin peptide substrate); format: biochemical; conditions: trypsin-activated stromelysin 2 nM, H-150 buffer pH 7.4, room temperature; read-out: Ki(app)
# Outline: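 Human stromelysin trypsin-activated, then used at 2 nM in HEPES/NaCl/CaCl2 buffer pH 7.4 at room temperature with coumarin peptide substrate. Initial hydrolysis rate followed by fluorescence (ex 328/em 393 nm); inhibitor added stepwise to 30-70% inhibition, Ki derived assuming simple competitive inhibition with substrate far below Km.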
# [1] = system: bovine cartilage explants; experiment: Bovine cartilage explant assay (35S-GAG release, rhIL-1α stimulated); format: cell-based; conditions: rhIL-1α 5 ng/mL, 3-4 days culture
# Source text: A tissue culture assay was used to measure the ability of the compounds of the present invention to slow the degradation of the extracellular matrix by metalloproteinases. This assay measured the amount of ^35 S-glycosaminoglycan (^35 S-GAG) released from labeled bovine cartilage explants.
# Knee joints from a 1 to 3 week old calf were obtained immediately after sacrifice from the Abattoir and then transported on ice. The intact joints were washed well with tap water and soaked in 50% (v/v) Povidine iodine solution, obtained from Burre National, Inc., Baltimore, Md. All subsequent steps were performed in a laminar flow tissue culture hood using standard sterile technique. The joint was immobilized in a shank holder and the joint capsule was cut open to expose the articular cartilage. Cartilage explant plugs, approximately 15 mg wet weight, were removed from the flat articulating surfaces in the lower-most region of the knee joint using a sterile steel cork-borer and collected in a 250 mL roller bottle containing about 100 mL fresh Delbecco's minimum essential medium (DMEM), obtained from Gibco BRC, Life Technologies, Gaithersburg, Md., containing 4.5 g/l (D)-glucose and (L)-glutamine, without sodium pyruvate. The fresh media also contained enough Hepes buffer and sodium bicarbonate such that the pH was about 7.4. The media was then further supplemented just before use with 100 units Penicillin, 100 μg Streptomycin, and 50 μg (L)-ascorbic acid per mL of medium.
# Once collected, the explant plugs were washed four times with 50 mL fresh DMEM. The plugs were then placed in the incubator for a minimum of 1 hour to equilibrate, before proceeding to make disks from the articulating surface of each plug. A 1 mm thick disk was sliced from individual plugs from the end that was the articulating surface of the joint. The plug was held steady in the sterile template (4 mm diameter×1.5 mm deep) using sterile forceps. A scalpel blade was used to carefully slice off the disk. Only the superficial articulating surface responded well in culture.
# Individual disks obtained were transferred to a tissue culture flask containing about 100 mL fresh media. The flask containing the disks was placed in an incubator at 37° C. (with 5% CO2, 95% air) and allowed to equilibrate overnight and at least one additional day before labeling. When ready to label, the old media was replaced with 50 mL fresh media containing about 500 μCi ^35 S-Sodium Sulfate. The plugs were labeled in bulk for about 48 hours. The next morning, the "hot" media was removed and replaced with fresh "cold" media. The disks were again allowed to equilibrate overnight before being used for actual experiments.
# The media in which the disks were stored was changed immediately prior to performing the assay. The disks were then returned to the incubator until the test media and the two control media had been prepared. The test media consisted of the desired concentration of a compound being tested for its ability to inhibit extracellular matrix degradation and concomitant recombinant human Interleukin rhIL-1α (5 ng/mL) in fresh DMEM solution. The control media were identical to the test media, except that the first control media lacked rhIL-1α and the second control media lacked the test compound. 250 μL of each of the test and control media were transferred to separate 96-well TC plates. Flamed forceps were used to transfer a disk from the incubator to each 96-well TC plates that had been filled with either the test media or one of the two control media.
# The TC plates were then placed in the incubator and cultured for 3-4 days (initial incubation with rhIL-1α alpha takes at least 3 days to stimulate endogenous metalloproteinases). A 50 μL aliquot of media from each TC plate was saved and counted. The rest of the media was removed with a suction device.
# The cartilage disks from each TC plate were also saved for counting. […]
# 92 kD gelatinase = 92 kD gelatinase (Homo sapiens, UniProt P14780); experiment: Assay of 92 KD gelatinase inhibition activity; format: biochemical; conditions: 92KD gelatinase 25 pM, H-150 buffer pH 7.4; read-out: Ki(app)
# Sequence of 92 kD gelatinase (P14780 107-707): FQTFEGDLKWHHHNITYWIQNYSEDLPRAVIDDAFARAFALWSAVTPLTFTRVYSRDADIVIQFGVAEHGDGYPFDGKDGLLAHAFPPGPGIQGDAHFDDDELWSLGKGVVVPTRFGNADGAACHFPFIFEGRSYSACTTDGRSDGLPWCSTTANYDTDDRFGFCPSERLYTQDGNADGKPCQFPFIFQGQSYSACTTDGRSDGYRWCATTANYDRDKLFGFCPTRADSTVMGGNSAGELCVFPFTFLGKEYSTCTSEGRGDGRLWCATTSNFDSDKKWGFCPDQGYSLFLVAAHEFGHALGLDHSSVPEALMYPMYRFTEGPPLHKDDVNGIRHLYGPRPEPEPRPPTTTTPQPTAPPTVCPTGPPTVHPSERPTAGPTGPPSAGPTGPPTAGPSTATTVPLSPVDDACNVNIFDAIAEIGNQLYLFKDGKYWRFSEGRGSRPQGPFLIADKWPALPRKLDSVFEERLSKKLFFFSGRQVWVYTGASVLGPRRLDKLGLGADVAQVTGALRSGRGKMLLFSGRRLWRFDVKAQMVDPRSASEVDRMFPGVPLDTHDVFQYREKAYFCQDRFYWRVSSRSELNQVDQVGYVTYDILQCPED
# Experimental: H-150 buffer, pH 7.4, was prepared by CaCl2 H2 O (1.47 grams), NaCl (8.77 grams) and N-[2-hydroxyethyl]piperazine-N'-[2-ethanesulfonic acid](23.83 grams) to distilled and deionized water and then bring the final volume of the solution to 1 liter. A reaction mixture having a final volume of 500 μL was prepared with H-150 buffer, 200 μgrams of Pro-92KD gelatinase (Strongin et al., J. Biol. Chem., 268:14033 (1993); Goldberg, et al., J. Biol. Chem., 267:4583 (1992); Okada et al., J. Biol. Chem. 267:21712 (1992)), p-aminophenyl mercuric acetate (Sigma Chemical Co., St. Louis, Mo.) (1 mM) and Brij (dodexylpoly(oxyethyleneglycolether))(0,008% w/v). The reaction mixture wsa then incubated for 24 hours at 37° C.
# The reaction mixture was applied to a NAP-5 column (G-25 SEPHADEX™, Pharmacia). Fractions containing 72KD gelatinase were identified using 12% polyacrylamide gel electrophoresis and concentrated to about 100-200 μliters by centrifigation (5000 g, 1 hour).
# A solution containing H-150 buffer (2.0 mL), 92KD gelatinase (25 pM) and ethylphenolpoly(ethylene-glycolether)n (Boerhringer Mannheim) (4.0 μM) was prepared in a stirred cuvette. Coumarin peptide substrate (4 μL of a 5 mM solution in dimethyl sulfoxide) was added to the reaction mixture. The rate of hydrolysis was determined for about 100-200 seconds by measuring the fluorescence of the reaction at ex328 nanometers and […] using a Hitachi F-2000 Fluorescence Spectrophotometer.
# (§1) 2 μL of a 10 mM inhibitor stock solution (in dimethyl sulfoxide) is added and the reduction in the rate of hydrolysis is determined. Additional 2 μL aliquots of the stock inhibitor solution is added until a 30% to 70% inhibition is observed. Ki is calculated on the assumption of simple competitive inhibition and that the substrate concentration is much less than Km.
# [2] = biological target: human neutrophil collagenase (Homo sapiens, UniProt P22894); experiment: Assay of human neutrophil collagenase inhibition activity; format: biochemical; conditions: human neutrophil collagenase 2 nM, H-150 buffer pH 7.4; read-out: Ki(app)
# Sequence of human neutrophil collagenase (P22894 101-467): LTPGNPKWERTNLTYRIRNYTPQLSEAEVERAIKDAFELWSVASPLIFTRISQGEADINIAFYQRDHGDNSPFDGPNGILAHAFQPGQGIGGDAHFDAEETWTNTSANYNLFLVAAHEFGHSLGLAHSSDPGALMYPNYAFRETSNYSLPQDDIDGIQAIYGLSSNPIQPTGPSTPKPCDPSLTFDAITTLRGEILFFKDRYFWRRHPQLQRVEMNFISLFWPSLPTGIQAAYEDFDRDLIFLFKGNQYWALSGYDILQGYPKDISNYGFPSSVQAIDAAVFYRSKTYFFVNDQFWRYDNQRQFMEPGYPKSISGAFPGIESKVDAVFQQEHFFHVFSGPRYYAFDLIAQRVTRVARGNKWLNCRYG
# Experimental: H-150 buffer, pH 7.4, was prepared by adding CaCl2 H2 O (1.47 grams), NaCl (8.77 grams) and N-[2-hydroxyethyl]piperazine-N'-[2-ethanesulfonic acid] (23.83 grams) to distilled and deionized water and then bringing the final volume of the solution to 1 liter.
# A reaction mixture with a final volume of 2.0 mL was prepared from H-150 buffer, human neutrophil collagenase (Schnierer, et al., Blochem. Biophys. Res. Comm., 191:319 (1993); Knight et al., Federation of Europena Biochemical Societies 296:263 (1992)) (2 nM). Coumarin peptide substrate (4 μL of a 5 mM solution in dimethyl sulfoxide) was added to the reaction mixture. The rate of hydrolysis was determined for about 100-200 seconds by measuring the fluorescence of the reaction at ex328 nanometers and […] using a Hitachi F-2000 Fluorescence Spectrophotometer.
# as §1
# [3] = Bos taurus, 25 μM compound, read-out: % inhibition (concentration [μM]) of cartilage degradation
# Sequence of stromelysin (P08254 100-477): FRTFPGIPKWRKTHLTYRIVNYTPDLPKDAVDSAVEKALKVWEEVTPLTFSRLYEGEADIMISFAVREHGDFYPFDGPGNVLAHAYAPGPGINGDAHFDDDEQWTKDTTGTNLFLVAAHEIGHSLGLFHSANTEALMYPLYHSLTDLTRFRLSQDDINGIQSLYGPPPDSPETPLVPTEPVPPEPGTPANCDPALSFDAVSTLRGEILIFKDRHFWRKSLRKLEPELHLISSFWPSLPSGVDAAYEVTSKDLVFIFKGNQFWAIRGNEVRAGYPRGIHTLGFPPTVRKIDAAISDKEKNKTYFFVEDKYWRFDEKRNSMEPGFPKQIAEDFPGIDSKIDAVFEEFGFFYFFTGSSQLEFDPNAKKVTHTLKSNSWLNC
Ki (stromelysin),Compound,% inhibition (concentration [μM]) of cartilage degradation ([1]; 25 μM compound),% inhibition (concentration [μM]) of cartilage degradation ([1]; 50 μM compound),also measured
135 nM,"CC(C)[C@H](NC(=O)[C@H](Cc1ccccc1)NC(=O)Cc1ccc(-c2ccccc2)cc1)C(=O)Nc1n[nH]c(=S)s1 [5-(N-(4-phenyl)phenylacetyl-phenylalanyl-valylamino)-1,3,4-thiadiazole-2-thione]",37%,–,–
436 nM,"O=C(N[C@@H](CCc1ccccc1)C(=O)Nc1n[nH]c(=S)s1)OCC1c2ccccc2-c2ccccc21 [5-(N-(9-flourenylmethoxycarbonyl)homophenylalanylamino)-1,3,4-thiadiazole-2-thione]",–,65%,Ki (92 kD gelatinase): 0.35 nM
128 nM,"CC(C)[C@H](NC(=O)OCC1c2ccccc2-c2ccccc21)C(=O)Nc1n[nH]c(=S)s1 [5-(N-(9-fluorenylmethoxycarbonyl)valylamino)-1,3,4-thiadiazole-2-thione]",–,–,"inhibition at 20 µM ([1]; Bos taurus, 20 μM compound, read-out: % inhibition (concentration [μM]) of cartilage degradation): 42%"
100 nM,"CC(C)[C@H](NC(=O)Cc1ccc(-c2ccccc2)cc1)C(=O)Nc1n[nH]c(=S)s1 [5-(N-((4-phenyl)phenylacetyl)valylamino)-1,3,4-thiadiazole-2-thione]",–,–,"inhibition at 25 µM [1, 3]: 47%"
80 nM,"CC(C)[C@H](NC(=O)[C@H](Cc1ccc(OCc2ccccc2)cc1)NC(=O)OCc1ccccc1)C(=O)Nc1n[nH]c(=S)s1 [5-(N-benzyloxycarbnyl-(O-benzyl)tyrosyl-valylamino)-1,3,4-thiadiazole-2-thione]",–,59%,Ki [2]: 2.15 nM
91 nM,"CC(C)[C@H](NC(=O)[C@H](CCC(=O)NC(c1ccccc1)(c1ccccc1)c1ccccc1)NC(=O)OCc1ccccc1)C(=O)Nc1n[nH]c(=S)s1 [5-(N-benzyloxycarbonyl-(7--N-trityl)glutamyl-valyamino-1,3,4-thiadiazole-2-thione]",56%,–,–
146 nM,"CC(C)[C@H](NC(=O)[C@H](CCC(=O)OCc1ccccc1)NC(=O)OCc1ccccc1)C(=O)Nc1n[nH]c(=S)s1 [5-(N-benzyloxycarbonyl-(O-benzyl)glutamoyl-valylamino)-1,3,4-thiadiazole-2-thione]",33%,–,–
–,"O=C(N[C@H](CCc1ccccc1)C(=O)Nc1n[nH]c(=S)s1)OCc1ccccc1 [5-(N-benzyloxycarbonyl-D-homophenylalanylamino)-1,3,4-thiadiazole-2-thione]",–,–,"inhibition at 25 µM [1, 3]: 22%"
225 nM,"O=C(N[C@@H](Cc1c[nH]c2ccccc12)C(=O)N[C@@H](Cc1ccccc1)C(=O)Nc1n[nH]c(=S)s1)OCc1ccccc1 [5-(N-benzyloxycarbonyl-tryptoyl-phenylalanylamino)-1,3,4-thiadiazole-2-thione]",–,35%,–
